Experiments:
[1] = tested on: LPS (TLR4)-induced signaling in human monocytes (primary CD14+); test: LPS (TLR4)-induced signaling, western blot; assay type: cell-based; conditions: western blot; for formation of p-IKK, p-ERK and p-p38 induced by LPS: 20 min pretreatment, 15 min activation with 100 ng/ml LPS
Experimental: (§1) Venous blood samples were obtained from healthy male donors in compliance with the Institutional Review Board at the Sheba Medical Center, Ramat Gan, Israel. PBMCs were isolated on Ficoll-Paque PLUS (GE Healthcare, Uppsala, Sweden) using 50 ml Leucosep tubes (Greiner Bio-One, Frickenhausen, Germany). Cells were washed in PBS (Kibbutz Beit Haemek, Israel) and incubated at 4° C. for 15 minutes in a buffer containing PBS and 0.5% bovine serum albumin (BSA) with human CD14 microbeads (Miltenyi Biotec, Bergisch Gladbach, Germany).
(§2) Cells (10^6/ml) were pretreated for 20 min with VB-201 (1-hexadecyl-2-(4′-carboxy)butyl-glycero-3-phosphocholine or 1-hexadecyl-2-(4′-carboxybutyl)-glycerol-3-phosphocholine) or VB-701 at the doses indicated in FIG. 2, or with solvent (Sol), followed by 15 min activation with 100 ng/ml lipopolysaccharide (LPS) or were untreated (Unt). Cells were washed and resuspended in lysis buffer containing 1:100 dithiothreitol (DTT), phosphatase and protease inhibitors (Thermo Scientific). Samples were loaded onto a precast Criterion TGX gel (Bio-Rad, Hemel Hempstead, UK) and transferred onto nitrocellulose membrane. Blots were blocked with 5% milk or BSA in Tris buffered saline and Tween 20 (TBST) for 1 h, followed by incubation with primary and secondary antibodies. Membranes were developed using an ECL kit (Thermo Scientific). The following antibodies were used for immunoblotting:
(§3) Primary antibodies: p-p38 (Cat. No. 4511; 1:1000) and p-IKK (Cat. No. 2697; 1:1000) were from Cell Signaling Technology (Danvers, Mass., USA). p-ERK1/2 (Cat. No. M8159; 1:10000) was purchased from Sigma (Israel). αTubulin (Tub) served as a loading control.
(§4) Secondary antibodies: HRP donkey anti-rabbit (1:5000) and HRP goat anti-mouse (1:3000) were from Jackson ImmunoResearch (West Grove, Pa., USA). HRP donkey anti-goat (1:5000) was from Santa Cruz Biotechnology.
as §2, with “VB-201” for “VB-201 (1-hexadecyl-2-(4′-carboxy)butyl-glycero-3-phosphocholine”, “VB-703” for “1-hexadecyl-2-(4′-carboxybutyl)-glycerol-3-phosphocholine) or VB-701 at the doses indicated in FIG. 2, or with solvent (Sol),”, “LPS.” for “lipopolysaccharide (LPS) or were untreated (Unt).”
as §3, with “Heat shock protein (HSP) 90 (Cat. No. 13119; 1:500) was from Santa Cruz Biotechnology (Santa Cruz, Calif., USA).” for “αTubulin (Tub) served as a loading control.”

[2] = tested on: human monocytes (primary CD14+); test: Chemokine-induced cell migration trans-well assay; assay type: cell-based; conditions: RANTES 100 ng/ml and MCP-1 50 ng/ml, 2-4 hours, FACS count
Experimental: as §1
Cells (10^6/ml) were pretreated for 20 min with VB-201 or VB-701 at the doses indicated in FIG. 5, or with solvent (Sol).
To test for chemokine-induced cell migration, RANTES (100 ng/ml; Cat. No. 300-06, PeproTech, Israel) and MCP-1 (50 ng/ml; Cat. No. 300-04, PeproTech, Israel) were dissolved in RPMI-1640 medium supplemented with 0.5% fetal bovine serum (FBS) and placed at the lower chamber of QCM 24-well, […], migration assay plates (Corning-Costar, Corning, N.Y.). Cells (3×10^5) were seeded in the upper chamber and incubated for 2-4 hours. Subsequently, the number of cells which migrated to the lower compartment was determined by fluorescence-activated cell sorting (FACS).

[3] = tested on: RANTES-induced signaling in human monocytes (primary CD14+); test: RANTES-induced signaling, western blot; assay type: cell-based; conditions: RANTES 100 ng/ml for 15 minutes
Experimental: as §2
Human monocytes were obtained, treated and analyzed by western blot as described in Example 9 and FIG. 7, except that cells were induced with RANTES (100 ng/ml; Cat. No. 300-06, PeproTech, Israel) for 15 minutes. […] Accordingly, VB-702 and VB-201 inhibit RANTES-induced signaling in human monocytes (primary CD14+).

[4] = tested on: LPS (TLR4)-stimulated human monocytes (primary CD14+); test: IL-12/23p40 ELISA, LPS (TLR4)-stimulated monocytes; assay type: cell-based; conditions: 1 hour pretreatment, 24 hour 100 ng/ml LPS, ELISA of supernatant
Experimental: (§5) Human monocytes were obtained as described in Example 9 and FIG. 9A-9B. Human monocytes were seeded (10^6/ml) and pretreated for 1 hour with VB-201, VB-701 or VB-702, followed by 24 hour activation with 100 ng/ml LPS from Escherichia coli strain 055:B5 (Sigma, Israel) (FIG. 9A) or 300 ng/ml Pam3CSK4 (InvivoGen, San Diego, Calif., USA) (FIG. 9B) to induce cytokine production. IL-12/23p40 concentration in the supernatant was then measured by ELISA (R&D systems, Cat. No. DY1240). Cells activated with solvent (0.5% ethanol in PBS) were used as a control.

[5] = tested on: Pam3CSK4 (TLR2)-stimulated human monocytes (primary CD14+); test: IL-12/23p40 ELISA, Pam3CSK4 (TLR2)-stimulated monocytes; assay type: cell-based; conditions: 1 hour pretreatment, 24 hour 300 ng/ml Pam3CSK4, ELISA of supernatant
Experimental: as §5

TLR4 complex = molecular target: T1, TLR4 complex (Homo sapiens, UniProt O00206+Q9Y6Y9); test: LPS binding inhibition assay (biotin-LPS, FACS); conditions: biotin-LPS 100 ng/ml, FACS
T1 construct: endogenous in cells; probably the human primary monocytes of b454
Experimental: To assess interference with lipopolysaccharide (LPS) binding, VB-201 or VB-703 were incubated for 20 min with cells (10^6/ml) after which 100 ng/ml of biotin-LPS (InvivoGen) was added for an additional 15 minutes, all at 4° C. Cells were washed, resuspended in FACS buffer and analyzed on a FACS-Calibur device.

[6] = tested on: human monocytes (THP-1 cell line); test: SDF1-induced cell migration trans-well assay; assay type: cell-based; conditions: 5 μg/ml, 20 min pretreatment
[7] = tested on: PGN (TLR2)-induced signaling in human monocytes (THP-1 cell line); test: PGN (TLR2)-induced signaling, western blot; assay type: cell-based; conditions: 20 min pretreatment, 20 μg/ml PGN for 15 minutes
Experimental: The monocytic THP-1 cell line was purchased from the American Type Tissue Culture Collection (ATCC Cat. No. TIB-202). Cells (10^6/ml) were pretreated for 20 min with VB-201 or VB-701 at the doses indicated in FIG. 3, or with solvent, followed by activation with 20 μg/ml peptidoglycan (PGN) (InvivoGen, San Diego, Calif.) for 15 minutes, or were untreated (“Unt”). Cells were washed and resuspended in lysis buffer containing 1:100 dithiothreitol (DTT), phosphatase and protease inhibitors (Thermo Scientific). Samples were loaded onto a precast Criterion TGX gel (Bio-Rad, Hemel Hempstead, UK) and transferred onto nitrocellulose membrane. Blots were blocked with 5% milk or BSA in Tris buffered saline and Tween 20 (TBST) for 1 h, followed by incubation with primary and secondary antibodies. Membranes were developed using an ECL kit (Thermo Scientific). The following antibodies were used for immunoblotting:
Primary antibodies: p-p38 (Cat. No. 4511; 1:1000) and p-IKK (Cat. No. 2697; 1:1000) were from Cell Signaling Technology (Danvers, Mass., USA). p-ERK1/2 (Cat. No. M8159; 1:10000) was purchased from Sigma (Israel). αTubulin served as a loading control.
as §4

[8] = tested on: MCP-1-induced signaling in human monocytes (THP-1 cell line); test: MCP-1-induced signaling, western blot; assay type: cell-based; conditions: 20 min pretreatment, 50 ng/ml MCP1, THP-1
Experimental: THP-1 cells (10^6/ml) were pretreated for 20 min with VB-201 or VB-701 at the doses indicated in FIG. 4, or with solvent, followed by activation with 50 ng/ml MCP1, or were untreated (“Unt”). Cells were washed and resuspended in lysis buffer containing 1:100 dithiothreitol (DTT), phosphatase and protease inhibitors (Thermo Scientific). Samples were loaded onto a precast Criterion TGX gel (Bio-Rad, Hemel Hempstead, UK) and transferred onto nitrocellulose membrane. Blots were blocked with 5% milk or BSA in Tris buffered saline and Tween 20 (TBST) for 1 h, followed by incubation with primary and secondary antibodies. Membranes were developed using an ECL kit (Thermo Scientific). The following antibodies were used for immunoblotting:
Primary antibodies: p-ERK1/2 (Cat. No. M8159; 1:10000) was purchased from Sigma (Israel). p-AKT (Cat. No. 4060; 1:1000) was purchased from Cell Signaling Technology (Danvers, Mass.). αTubulin served as a loading control and was purchased from Sigma (Israel).
as §4

T1 sequence (O00206 24-839): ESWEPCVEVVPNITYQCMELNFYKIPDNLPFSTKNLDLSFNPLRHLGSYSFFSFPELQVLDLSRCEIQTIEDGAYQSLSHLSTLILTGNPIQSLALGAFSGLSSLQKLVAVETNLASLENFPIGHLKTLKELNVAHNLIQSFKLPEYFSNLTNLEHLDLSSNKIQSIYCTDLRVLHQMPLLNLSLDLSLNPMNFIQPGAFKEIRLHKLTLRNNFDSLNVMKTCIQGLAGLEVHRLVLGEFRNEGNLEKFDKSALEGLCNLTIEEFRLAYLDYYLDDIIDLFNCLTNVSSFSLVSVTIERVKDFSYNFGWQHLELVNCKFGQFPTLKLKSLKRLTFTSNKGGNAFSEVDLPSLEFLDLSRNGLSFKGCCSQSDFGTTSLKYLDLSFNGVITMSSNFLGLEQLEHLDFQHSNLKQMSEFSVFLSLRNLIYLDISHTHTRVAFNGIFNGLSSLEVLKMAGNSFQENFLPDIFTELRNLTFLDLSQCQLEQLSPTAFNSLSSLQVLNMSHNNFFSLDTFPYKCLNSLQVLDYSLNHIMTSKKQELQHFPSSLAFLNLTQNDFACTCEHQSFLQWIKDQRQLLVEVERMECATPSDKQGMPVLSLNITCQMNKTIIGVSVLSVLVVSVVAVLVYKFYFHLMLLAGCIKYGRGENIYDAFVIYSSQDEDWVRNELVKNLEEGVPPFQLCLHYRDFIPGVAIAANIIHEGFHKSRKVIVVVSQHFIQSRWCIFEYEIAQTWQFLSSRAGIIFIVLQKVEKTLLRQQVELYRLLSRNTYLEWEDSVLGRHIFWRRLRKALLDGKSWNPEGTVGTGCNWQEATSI
T1 sequence (Q9Y6Y9 17-160 limits assumed): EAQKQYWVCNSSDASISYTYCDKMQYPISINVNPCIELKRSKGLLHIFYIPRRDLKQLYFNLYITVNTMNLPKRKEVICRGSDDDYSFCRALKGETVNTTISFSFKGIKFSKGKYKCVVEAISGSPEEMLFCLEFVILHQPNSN

| LPS-biotin binding to human monocytes (primary CD14+) (TLR4 complex) | Compound | formation of p-IKK, p-ERK and p-p38 induced by LPS [1] | chemokine-induced migration of human monocytes [2] | formation of p-ERK induced by RANTES [3] | IL-12p40 levels, LPS (TLR4)-stimulated [4] | IL-12p40 levels, Pam3CSK4 (TLR2)-stimulated [5] | formation of p-ERK and p-AKT induced by LPS ([1]; LPS activation) | SDF1-induced migration of human monocytes (THP-1 cell line) [6] | formation of p-IKK, p-ERK and p-p38 induced by PGN [7] | formation of p-AKT and p-ERK induced by MCP1 [8] |
| --- | --- | --- | --- | --- | --- | --- | --- | --- | --- | --- |
| – | CCCCCCCCCCCCCCCCCCCCOCC(COP(=O)([O-])OCC[n+]1ccccc1)OCCCCC(=O)O (centres unmarked) [VB-702, 1-eicosanyl-2-(4′-carboxy)butyl-glycero-sn-3-phosphoric acid pyridiniumethyl ester] | inhibit | inhibit | inhibit | inhibit | inhibit | – | – | – | – |
| inhibits | CCCCCCCCCCC(CCCCCCCC)COCC(COP(=O)([O-])OCC[n+]1ccccc1)OCCCCC(=O)OC (centres unmarked) [VB-705, 1-(2′-octyl)dodecyl-2-(4′-carboxymethyl)butyl-glycero-sn-3-phosphoric acid pyridiniumethyl ester] | – | – | – | – | – | inhibit | does not inhibit | – | – |
| – | CCCCCCCCCCCCCCCCOCC(COP(=O)([O-])OCC[n+]1ccccc1)OCCCCC(=O)O (centres unmarked) [VB-701, 1-hexadecyl-2-(4′-carboxy)butyl-glycero-sn-3-phosphoric acid pyridiniumethyl ester] | inhibit | inhibit | – | inhibit | inhibit | – | – | inhibit | inhibit |
